Consider three molecules from patent US12653796B2, “Compounds for use (in particular RIPA-56) in the prevention and/or treatment of non-alcoholic fatty liver disease” (SORBONNE UNIVERSITE, priority 2019, dated 2026).

The test system of assay [1] is primary human hepatocytes. Put plainly: Fat depletion in primary human hepatocytes with free fatty acid-induced steatosis. It counts as cell-based. The conditions noted are these: 20 μM, 24 h. As for the experimental part:
FIG. 7. RIPA-56 treatment induces fat depletion in primary human hepatocytes. Primary human hepatocytes were isolated from steatotic human livers of patients with NAFLD (n=5) (A-C) or from non-steatotic human livers and incubated with free fatty acids to induce steatosis or without (W/O) (n=5) (D-G), and treated with RIPA-56 (20 μM) or DMSO (vehicle) for 24 h. (A, D) Representative Oil Red-O and DAPI images; (B, E) Quantification of Oil Red-O staining normalized for the number of DAPI-stained nuclei; (C, F) Quantification of intracellular triglycerides normalized to protein content; (G) mRNA levels of CPT1A, MTTP and APOB100 were assessed by RT-qPCR, and shown relative to DMSO-treated hepatocytes. Results are shown as mean±SEM; n.s., not significant; *p<0.05; **p<0.01; scale bars, 100 μm. These findings are representative of five independent cell preparations.
FIG. 9. MLKL controls intrahepatic triglyceride content in hepatocytes. (A-D) Primary human hepatocytes were isolated from non-steatotic human livers and incubated with free fatty acids to induce steatosis, or without (W/O), and treated with necrosulfonamide (NSA) (20 μM) or DMSO (vehicle) for 24 h. (A) Representative Oil Red-O and DAPI images; (B) Quantification of Oil Red-O staining normalized for the number of DAPI-stained nuclei; (C) Quantification of intracellular triglycerides normalized to protein content. (D) mRNA levels of CPT1A, MTTP and APOB100 were assessed by RT-qPCR and shown relative to DMSO-treated hepatocytes; (E-H) AML-12 cells were knocked-out (KO) for MLKL and compared with control (CTL) cells, which underwent a similar CRISPR-Cas9 selection as KO cells; (E) Whole-cell lysates were extracted from CTL and MLKL-KO AML-12 cells and analyzed by Western blot using antibodies against MLKL, Tubulin and GAPDH; (F) Representative Oil Red-O and DAPI images; (G) Oil Red-O staining and (H) triglycerides quantification in fat-loaded cell lines. Results are shown as mean±SEM; n.s., not significant; *p<0.05; **p<0.01; ***p<0.001; scale bars, 100 μm. These experiments are representative of five independent cell preparations.
The liver fragment was initially perfused with a prewarmed (37° C.) calcium-free buffer supplemented with 5 mmol/L ethylene glycol tetra-acetic acid (Sigma) followed by perfusion with a prewarmed (37° C.) buffer containing 6 mmol/L calcium (CaCl2) and collagenase 0.05% ([…]) (Sigma). The liver fragment was then gently shaken to disperse liver cells in Hepatocyte Wash Medium (Life Technologies, Villebon-sur-Yvette, France). The resulting cell suspension was filtered through a gauze-lined funnel. Cells were then centrifuged at low speed. The supernatant, containing damaged or dead hepatocytes, non-parenchymal cells and debris were removed and pelleted hepatocytes were re-suspended in Hepatocyte Wash Medium. The count of viable cells was determined using trypan blue exclusion. Freshly isolated normal (steatosis <5%) or steatotic (>10%) hepatocytes were resuspended in Williams medium E (Life technologies) containing 10% fetal calf serum (Eurobio), penicillin (200 U/mL)-streptomycin (200 μg/mL), Fungizone (2.5 μg/mL) and insulin (0.1 U/mL) (Life Technologies). The cells were seeded in 12-, 24- and 96-well plates pre-coated with type I collagen at a density of 0.78×10^6, 0.4×10^6 and 0.5×10^5 viable cells/well, respectively, and incubated overnight at 37° C. in a 5% CO2 atmosphere. The medium was replaced with fresh complete hepatocyte medium supplemented with 1 μmol/L hydrocortisone hemisuccinate (Laboratoires SERB, Paris, France) and hepatocytes were maintained in this medium. To induce steatosis in normal hepatocytes, PHH were incubated with free fatty acid (FFA) mixtures of oleic acid and palmitic acid in a molar ratio 2:1 (500:250 μmol/L), respectively, and with 1% fatty-acid-free BSA for 48 hours.
Total RNA was purified from liver tissue using TRIzol reagent (ThermoFisher) and a RNeasy Mini kit (Qiagen, Courtaboeuf, France). […]

The next assay relates to RIPK1. Put plainly: ELISA of RIPK1 released in supernatant of L929 cells exposed to TNFα. It counts as cell-based, murine. The following applies: 20 μM, 2 h, then TNFα (25 ng/mL) 6 h. As for the experimental part: FIG. 12. […] Results are shown as mean±SEM of six replicates.
L929 cells (LGC Standards, Molsheim, France), were cultured in Dulbecco's modified Eagle's medium (DMEM) (ThermoFisher, Massachusetts, USA) supplemented with 10% fetal bovine serum (Eurobio, Courtaboeuf, France), penicillin (100 IU/ml), streptomycin (0.1 mg/ml), and L-glutamine (0.03%) (ThermoFisher). […] AML-12 (alpha mouse liver-12) hepatocytes (LGC Standards) were cultured in DMEM/F12 Medium (ThermoFisher) supplemented with 10% fetal bovine serum (Eurobio), 10 μg/ml insulin, 5.5 μg/ml transferrin, 5 ng/ml selenium and 40 ng/ml dexamethasone (Sigma, Missouri, USA). AML-12 hepatocytes were stimulated with insulin (#I0516, 10 nM; Sigma) for 15 minutes.
Protein concentrations of human RIPK1 (SEE640Hu; Could-Clone Corp., Texas, USA), human MLKL (SER645Hu; Could-Clone Corp.) and murine RIPK1 (CSB-EL019735MO; Cusabio, Texas, USA) were determined by an ELISA kit according to the manufacturer's instructions.
For orientation: An ELISA detects its analyte on a solid surface through an enzyme-linked reagent.

Residues, ends and D or L forms follow the SMILES beside them. *: point of attachment. Cbz = O=C(OCc1ccccc1)*; CH2F = FC*

As to `COc1nccnc1NS(=O)(=O)c1ccc(NC(=O)/C=C/c2ccc([N+](=O)[O-])s2)cc1` [necrosulfonamide, reference compound], in assay [1] (FFA-induced steatosis), the “intracellular lipid droplets (Oil Red-O)” value was “significantly decreased” and the intracellular triglyceride content entry is on record as “significantly decreased”. In assay [1] (RT-qPCR), the “CPT1A expression (mRNA)” value is reported as “upregulated”.

With necrostatin-1 [Nec-1], in the assay with RIPK1, the “RIPK1 in the supernatant” value is “undetectable”.

For `COC(=O)C[C@H](NC(=O)[C@H](C)NC(=O)[C@@H](NC(=O)OCc1ccccc1)C(C)C)C(=O)CF` [Zvad] (Cbz-Val-Ala-Asp(OMe)-CH2F), the “RIPK1 in the supernatant” value in the assay on RIPK1 is “released”.
